Experimental data published in PMC11669383, “Modulating Liposome Surface Charge for Maximized ATP Regeneration in Synthetic Nanovesicles” (ACS Synthetic Biology, 2024).
Blank lines part the entries; values can stand above or below the molecule they belong to.

What was measured:
Test in all cases: coupled ATP synthesis in proteoliposomes, luciferase luminescence
[1] = molecular target: T1, quinone-fumarate oxidoreductase (FRD) (Escherichia coli, UniProt P00363); assay type: biochemical; details: bo3 oxidase and ATP synthase coreconstituted in E. coli polar lipid liposomes, 2 mol % ubiquinone Q8, succinate 1-2000 μM, pH 7.5, read-out is the coupled rate, read-out: apparent KM
T1 construct: gene frdA; coreconstituted in liposomes; with Fumarate reductase iron-sulfur subunit; Fumarate reductase subunit C; Fumarate reductase subunit D

[2] = molecular target: T1, quinone-fumarate oxidoreductase (FRD); assay type: biochemical
[3] = substrate: NC(=O)C1=CN([C@@H]2O[C@H](COP(=O)(O)OP(=O)(O)OC[C@H]3O[C@@H](n4cnc5c(N)ncnc54)[C@H](O)[C@@H]3O)[C@@H](O)[C@H]2O)C=CC1; assay type: biochemical, Escherichia coli; details: NDH-2 added to liposomes with bo3 oxidase, FRD and ATP synthase, 2 mol % ubiquinone Q8, NADH 5-200 μM, pH 7.5, read-out is the coupled rate

T1 sequence (P00363 2-602, other chains not shown): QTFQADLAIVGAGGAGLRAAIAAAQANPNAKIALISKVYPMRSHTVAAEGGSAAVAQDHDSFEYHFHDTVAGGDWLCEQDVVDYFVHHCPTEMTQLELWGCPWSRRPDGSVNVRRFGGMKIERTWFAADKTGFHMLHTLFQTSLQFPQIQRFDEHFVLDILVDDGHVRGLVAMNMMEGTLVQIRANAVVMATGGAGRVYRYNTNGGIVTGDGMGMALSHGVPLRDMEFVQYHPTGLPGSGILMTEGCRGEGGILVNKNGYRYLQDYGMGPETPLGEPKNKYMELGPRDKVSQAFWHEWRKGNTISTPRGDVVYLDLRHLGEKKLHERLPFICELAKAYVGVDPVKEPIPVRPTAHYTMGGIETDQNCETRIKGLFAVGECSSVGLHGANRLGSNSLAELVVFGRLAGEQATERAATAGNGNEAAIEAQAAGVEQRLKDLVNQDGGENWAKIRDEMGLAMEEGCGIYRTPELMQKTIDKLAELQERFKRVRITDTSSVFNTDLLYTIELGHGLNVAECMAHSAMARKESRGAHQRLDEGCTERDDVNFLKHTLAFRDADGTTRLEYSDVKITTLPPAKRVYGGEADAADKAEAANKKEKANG
T1 sequence (P0AC47 2-244 partner, other chains not shown): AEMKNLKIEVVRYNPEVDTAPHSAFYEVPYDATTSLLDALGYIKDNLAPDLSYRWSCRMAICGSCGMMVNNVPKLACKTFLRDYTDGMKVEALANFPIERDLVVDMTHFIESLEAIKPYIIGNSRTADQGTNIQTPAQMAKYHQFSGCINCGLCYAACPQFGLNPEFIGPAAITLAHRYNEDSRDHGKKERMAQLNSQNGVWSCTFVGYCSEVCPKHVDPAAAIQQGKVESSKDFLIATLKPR
T1 sequence (P0A8Q0 whole entry partner, other chains not shown): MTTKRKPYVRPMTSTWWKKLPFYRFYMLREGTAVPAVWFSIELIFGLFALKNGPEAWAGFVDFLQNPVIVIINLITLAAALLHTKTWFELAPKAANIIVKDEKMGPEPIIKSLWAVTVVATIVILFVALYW

Km [1]: 62.2 µM
Molecule: O=C(O)CCC(=O)O [succinate]

Molecule: O=C(O)CC(=O)O [malonate]
coupled ATP synthesis in proteoliposomes, luciferase luminescence [2]: The reaction was sensitive to the complex II inhibitor malonate.

B1: NADH dehydrogenase II (NDH-2) (Escherichia coli K-12) (protein)
chain: TTPLKKIVIVGGGAGGLEMATQLGHKLGRKKKAKITLVDRNHSHLWKPLLHEVATGSLDEGVDALSYLAHARNHGFQFQLGSVIDIDREAKTITIAELRDEKGELLVPERKIAYDTLVMALGSTSNDFNTPGVKENCIFLDNPHQARRFHQEMLNLFLKYSANLGANGKVNIAIVGGGATGVELSAELHNAVKQLHSYGYKGLTNEALNVTLVEAGERILPALPPRISAAAHNELTKLGVRVLTQTMVTSADEGGLHTKDGEYIEADLMVWAAGIKAPDFLKDIGGLETNRINQLVVEPTLQTTRDPDIYAIGDCASCPRPEGGFVPPRAQAAHQMATCAMNNILAQMNGKPLKNYQYKDHGSLVSLSNFSTVGSLMGNLTRGSMMIEGRIARFVYISLYRMHQIALHGYFKTGLMMLVGSINRVIRPRLKLH
notes: 45 kDa peripheral membrane protein with FAD
Km [3]: 18.5 µM
